Assay results published in the NIST ThermoML archive (doi:10.1021/je400415r).
Numbers after ± are expanded uncertainties.

Assay: mn = molality of the nth substance listed, in mol/kg
Conditions: 101 kPa, Liquid; for speed of sound: Pulse-echo method; for mass density: Vibrating tube method

CCCC(N)C(=O)O (stereo not drawn) [DL-2-aminopentanoic acid] + O
Conditions	mass density, 288.15 K [kg/m3]	mass density, 298.15 K [kg/m3]	mass density, 308.15 K [kg/m3]	mass density, 318.15 K [kg/m3]	speed of sound, 288.15 K [m/s]	speed of sound, 298.15 K [m/s]	speed of sound, 308.15 K [m/s]	speed of sound, 318.15 K [m/s]
m1 = 0.04497	1000.31 ± 0.041	998.222 ± 0.043	995.183 ± 0.045	991.346 ± 0.048	1471.3 ± 0.78	1501.2 ± 0.78	1523.8 ± 0.77	1540 ± 0.77
m1 = 0.05999	1000.71 ± 0.041	998.611 ± 0.042	995.564 ± 0.045	991.721 ± 0.048	1473 ± 0.78	1502.7 ± 0.78	1525.1 ± 0.77	1541.2 ± 0.77
m1 = 0.07998	1001.24 ± 0.042	999.126 ± 0.042	996.069 ± 0.045	992.218 ± 0.048	1475.1 ± 0.78	1504.6 ± 0.78	1526.9 ± 0.77	1542.8 ± 0.77
m1 = 0.09499	1001.63 ± 0.042	999.511 ± 0.042	996.447 ± 0.045	992.59 ± 0.047	1476.7 ± 0.78	1506.1 ± 0.78	1528.2 ± 0.77	1544 ± 0.77
m1 = 0.11	1002.03 ± 0.042	999.895 ± 0.042	996.823 ± 0.045	992.961 ± 0.047	1478.3 ± 0.78	1507.5 ± 0.78	1529.6 ± 0.77	1545.2 ± 0.77
m1 = 0.125	1002.42 ± 0.042	1000.28 ± 0.042	997.197 ± 0.045	993.329 ± 0.047	1479.9 ± 0.78	1509 ± 0.78	1530.9 ± 0.77	1546.4 ± 0.77
m1 = 0.14	1002.81 ± 0.043	1000.66 ± 0.042	997.57 ± 0.044	993.697 ± 0.047	1481.5 ± 0.78	1510.4 ± 0.78	1532.2 ± 0.77	1547.6 ± 0.77
m1 = 0.155	1003.2 ± 0.043	1001.04 ± 0.042	997.943 ± 0.044	994.064 ± 0.047	1483.1 ± 0.78	1511.9 ± 0.78	1533.5 ± 0.77	1548.8 ± 0.77
m1 = 0.17	1003.59 ± 0.043	1001.42 ± 0.043	998.314 ± 0.044	994.429 ± 0.047	1484.6 ± 0.78	1513.3 ± 0.78	1534.8 ± 0.77	1550 ± 0.77
m1 = 0.185	1003.98 ± 0.043	1001.79 ± 0.043	998.684 ± 0.044	994.793 ± 0.047	1486.2 ± 0.78	1514.7 ± 0.78	1536.2 ± 0.77	1551.2 ± 0.77
m1 = 0.2	1004.36 ± 0.044	1002.17 ± 0.043	999.053 ± 0.044	995.156 ± 0.047	1487.8 ± 0.78	1516.1 ± 0.78	1537.5 ± 0.77	1552.4 ± 0.77

CC(N)C(=O)O (stereo not drawn) [DL-2-aminopropanoic acid] + O
Conditions	mass density, 288.15 K [kg/m3]	mass density, 298.15 K [kg/m3]	mass density, 308.15 K [kg/m3]	mass density, 318.15 K [kg/m3]	speed of sound, 288.15 K [m/s]	speed of sound, 298.15 K [m/s]	speed of sound, 308.15 K [m/s]	speed of sound, 318.15 K [m/s]
m1 = 0.04994	1000.59 ± 0.041	998.501 ± 0.043	995.455 ± 0.045	991.617 ± 0.048	1469.9 ± 0.78	1500 ± 0.78	1522.8 ± 0.77	1539.1 ± 0.77
m1 = 0.1499	1003.53 ± 0.043	1001.37 ± 0.043	998.271 ± 0.044	994.396 ± 0.047	1476.9 ± 0.79	1506.5 ± 0.78	1528.8 ± 0.77	1544.8 ± 0.77
m1 = 0.2597	1006.7 ± 0.045	1004.46 ± 0.044	1001.3 ± 0.044	997.395 ± 0.046	1484.5 ± 0.79	1513.5 ± 0.78	1535.4 ± 0.77	1551 ± 0.77
m1 = 0.4797	1012.86 ± 0.048	1010.48 ± 0.048	1007.21 ± 0.047	1003.23 ± 0.046	1499.3 ± 0.79	1527.4 ± 0.79	1548.3 ± 0.78	1563.2 ± 0.78
m1 = 0.6994	1018.78 ± 0.052	1016.26 ± 0.051	1012.89 ± 0.051	1008.84 ± 0.05	1513.8 ± 0.79	1540.8 ± 0.79	1560.9 ± 0.78	1575 ± 0.78
m1 = 0.9199	1024.51 ± 0.055	1021.85 ± 0.055	1018.39 ± 0.054	1014.26 ± 0.053	1528 ± 0.8	1553.9 ± 0.79	1573.2 ± 0.79	1586.5 ± 0.79
m1 = 1.138	1029.97 ± 0.059	1027.2 ± 0.058	1023.64 ± 0.057	1019.43 ± 0.056	1541.7 ± 0.8	1566.6 ± 0.8	1585 ± 0.79	1597.7 ± 0.79
m1 = 1.36	1035.33 ± 0.063	1032.43 ± 0.062	1028.77 ± 0.061	1024.51 ± 0.06	1555.1 ± 0.8	1579.1 ± 0.8	1596.7 ± 0.8	1608.7 ± 0.8
m1 = 1.577	1040.37 ± 0.066	1037.36 ± 0.065	1033.63 ± 0.064	1029.29 ± 0.063	1568 ± 0.81	1591 ± 0.81	1607.8 ± 0.8	1619.2 ± 0.8
m1 = 1.799	1045.37 ± 0.07	1042.26 ± 0.069	1038.42 ± 0.068	1034.03 ± 0.066	1580.7 ± 0.81	1602.7 ± 0.81	1618.9 ± 0.81	1629.5 ± 0.81

CCC(N)C(=O)O (stereo not drawn) [(.+-.)-α-aminobutyric acid] + O
Conditions	mass density, 288.15 K [kg/m3]	mass density, 298.15 K [kg/m3]	mass density, 308.15 K [kg/m3]	mass density, 318.15 K [kg/m3]	speed of sound, 288.15 K [m/s]	speed of sound, 298.15 K [m/s]	speed of sound, 308.15 K [m/s]	speed of sound, 318.15 K [m/s]
m1 = 0.04996	1000.54 ± 0.041	998.441 ± 0.042	995.405 ± 0.045	991.565 ± 0.048	1470.8 ± 0.78	1500.8 ± 0.78	1523.5 ± 0.77	1539.8 ± 0.77
m1 = 0.1498	1003.36 ± 0.043	1001.19 ± 0.042	998.105 ± 0.044	994.226 ± 0.047	1479.5 ± 0.79	1508.9 ± 0.78	1530.9 ± 0.77	1546.7 ± 0.77
m1 = 0.2141	1005.15 ± 0.044	1002.92 ± 0.043	999.815 ± 0.043	995.911 ± 0.046	1485.2 ± 0.79	1513.8 ± 0.78	1535.7 ± 0.77	1551.1 ± 0.77
m1 = 0.4366	1011.15 ± 0.047	1008.79 ± 0.047	1005.56 ± 0.047	1001.57 ± 0.046	1504.2 ± 0.79	1531.5 ± 0.79	1551.8 ± 0.78	1566 ± 0.78
m1 = 0.6599	1016.91 ± 0.051	1014.4 ± 0.05	1011.06 ± 0.05	1006.99 ± 0.049	1522.7 ± 0.79	1548.4 ± 0.79	1567.4 ± 0.78	1580.5 ± 0.78
m1 = 0.8834	1022.42 ± 0.055	1019.77 ± 0.054	1016.34 ± 0.053	1012.18 ± 0.052	1540.7 ± 0.8	1564.9 ± 0.79	1582.6 ± 0.79	1594.5 ± 0.79
m1 = 1.106	1027.68 ± 0.058	1024.9 ± 0.058	1021.35 ± 0.057	1017.13 ± 0.056	1558 ± 0.8	1580.7 ± 0.8	1597.2 ± 0.79	1608 ± 0.79
m1 = 1.33	1032.73 ± 0.062	1029.83 ± 0.061	1026.17 ± 0.06	1021.87 ± 0.059	1574.8 ± 0.8	1596.1 ± 0.8	1611.3 ± 0.8	1621 ± 0.8
m1 = 1.552	1037.55 ± 0.066	1034.52 ± 0.065	1030.77 ± 0.064	1026.4 ± 0.063	1590.9 ± 0.81	1610.8 ± 0.81	1624.8 ± 0.81	1633.5 ± 0.81
m1 = 1.774	1042.19 ± 0.07	1039.05 ± 0.069	1035.2 ± 0.068	1030.74 ± 0.066	1606.6 ± 0.82	1625.1 ± 0.82	1637.8 ± 0.81	1645.5 ± 0.81
m1 = 1.998	1046.67 ± 0.074	1043.4 ± 0.072	1039.51 ± 0.071	1034.95 ± 0.07	1621.7 ± 0.82	1638.9 ± 0.82	1650.5 ± 0.82	1657.1 ± 0.82

NCC(=O)O [2-aminoacetic acid] + O
Conditions	mass density, 288.15 K [kg/m3]	mass density, 298.15 K [kg/m3]	mass density, 308.15 K [kg/m3]	mass density, 318.15 K [kg/m3]	speed of sound, 288.15 K [m/s]	speed of sound, 298.15 K [m/s]	speed of sound, 308.15 K [m/s]	speed of sound, 318.15 K [m/s]
m1 = 0.04998	1000.77 ± 0.042	998.679 ± 0.043	995.632 ± 0.045	991.792 ± 0.048	1469.2 ± 0.78	1499.4 ± 0.78	1522.2 ± 0.77	1538.6 ± 0.77
m1 = 0.1399	1003.74 ± 0.043	1001.58 ± 0.043	998.484 ± 0.044	994.608 ± 0.047	1474.3 ± 0.79	1504.2 ± 0.78	1526.8 ± 0.77	1543 ± 0.77
m1 = 0.2276	1006.6 ± 0.045	1004.38 ± 0.044	1001.24 ± 0.044	997.323 ± 0.046	1479.2 ± 0.79	1508.8 ± 0.78	1531.1 ± 0.77	1547.1 ± 0.77
m1 = 0.4056	1012.27 ± 0.048	1009.94 ± 0.047	1006.71 ± 0.047	1002.72 ± 0.046	1488.9 ± 0.79	1517.9 ± 0.79	1539.7 ± 0.78	1555.4 ± 0.77
m1 = 0.5835	1017.82 ± 0.051	1015.36 ± 0.05	1012.04 ± 0.05	1007.99 ± 0.049	1498.4 ± 0.79	1526.8 ± 0.79	1548.2 ± 0.78	1563.5 ± 0.78
m1 = 0.7602	1023.19 ± 0.054	1020.62 ± 0.053	1017.22 ± 0.053	1013.1 ± 0.052	1507.6 ± 0.79	1535.4 ± 0.79	1556.3 ± 0.78	1571.3 ± 0.78
m1 = 0.9386	1028.48 ± 0.057	1025.81 ± 0.056	1022.32 ± 0.056	1018.13 ± 0.055	1516.7 ± 0.79	1543.9 ± 0.79	1564.4 ± 0.78	1579 ± 0.78
m1 = 1.117	1033.62 ± 0.06	1030.85 ± 0.059	1027.28 ± 0.059	1023.04 ± 0.057	1525.5 ± 0.8	1552.2 ± 0.8	1572.2 ± 0.79	1586.4 ± 0.79
m1 = 1.296	1038.69 ± 0.063	1035.81 ± 0.062	1032.17 ± 0.062	1027.84 ± 0.06	1534.1 ± 0.8	1560.3 ± 0.8	1579.8 ± 0.79	1593.7 ± 0.79
